Molecular target: human plasma kallikrein (Homo sapiens, UniProt P03952)
Test: Kallikrein inhibition FLINT assay with quenched AMC peptide substrate Z-Gly-Pro-Arg-AMC (end point EP or kinetic KIN reads)
Assay type: biochemical
Conditions: kinetic reads at 5 min intervals over 30 min; read-out: Kallikrein (KIN) IC50
Experimental: A fluorescence intensity (FLINT) based assay was used to monitor inhibition of human plasma kallikrein.
The Kallikrein FLINT assay was used with the following Z-Gly-Pro-Arg-AMC assay buffer: 50 mM Tris, pH 7.5, 100 mM NaCl, 5 mM CaCl2, 0.1 mg/mL BSA, 0.03% CHAPS. Assay buffer was prepared by mixing all ingredients fresh. 2× Z-Gly-Pro-Arg-AMC peptide substrate was prepared by diluting 10 mM stock into 1× assay buffer for a 100 μM working concentration (50 μM final concentration).
Test compound(s) were run in an 11-point, 3-fold serial dilution with a final top compound concentration of 1 μM. Final DMSO in assay was 2%. Plasma kallikrein was pre-incubated for 30-minute with compound and then 50 μM substrate was added to initiate the reaction. The assay was run with either end point (EP) reads at 30 min or kinetic (KIN) reads at 5 min intervals over 30 minutes.
Percent inhibition (IC50) curves were generated per compound tested, and data was analyzed using a 4-parameter logistic fit using GeneData Screener. The relative fluorescence unit (RFU) values were normalized to percent inhibition using the following equation: % inhibition=((HC−LC)−(compound−LC)/(HC−LC))*100
An 11-point dose response curve for the test compound(s) was generated using GENDATA to determine IC50 value based on the following equation: Y=Bottom+(Top−Bottom)/(1+10^((log IC50−X)*HillSlope))
Results listed in columns with […] designation were measured using endpoint reads where a single fluorescence reading was measured for each well at a 30 min timepoint.

Chain of human plasma kallikrein (P03952 391-638 limits assumed): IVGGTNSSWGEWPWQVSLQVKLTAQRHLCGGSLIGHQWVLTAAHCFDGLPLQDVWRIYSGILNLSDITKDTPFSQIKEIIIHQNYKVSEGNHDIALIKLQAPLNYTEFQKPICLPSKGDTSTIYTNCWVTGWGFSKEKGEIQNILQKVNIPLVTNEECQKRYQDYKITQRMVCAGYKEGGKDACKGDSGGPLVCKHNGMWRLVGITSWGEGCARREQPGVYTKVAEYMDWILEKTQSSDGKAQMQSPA
Chain of human plasma kallikrein (P03952 20-390 partner limits assumed): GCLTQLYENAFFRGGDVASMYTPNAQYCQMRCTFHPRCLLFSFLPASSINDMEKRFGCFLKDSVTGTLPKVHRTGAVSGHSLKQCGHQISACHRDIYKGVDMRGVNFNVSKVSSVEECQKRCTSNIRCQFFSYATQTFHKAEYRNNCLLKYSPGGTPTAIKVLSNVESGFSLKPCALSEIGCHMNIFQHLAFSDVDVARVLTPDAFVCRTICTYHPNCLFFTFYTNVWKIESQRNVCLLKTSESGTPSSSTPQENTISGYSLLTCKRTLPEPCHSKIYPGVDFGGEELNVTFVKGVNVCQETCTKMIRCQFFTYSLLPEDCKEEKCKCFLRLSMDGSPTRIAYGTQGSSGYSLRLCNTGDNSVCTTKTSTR

Going from `O=C1CCCN1CC(c1ccc(-c2c(-n3cnnn3)ccc(Cl)c2F)c[n+]1[O-])n1cc(-c2ccnc(F)c2)cn1` (single isomer, unassigned) [Example P382] to `[O-][n+]1cc(-c2c(-n3cnnn3)ccc(Cl)c2F)ccc1C(CC1CC1)n1cc(-c2ccnc(F)c2)cn1` (single isomer, unassigned) [Example P264], the IC50 rises from 7.3 nM to 46.3 nM (6.3-fold).

Going from `Cn1ncc(F)c1-c1cnn([C@H](CCOC(F)F)c2ccc(-c3c(-n4cc(Cl)nn4)ccc(Cl)c3F)c[n+]2[O-])c1` [Example P680] to `[O-][n+]1cc(-c2c(-n3cc(Cl)nn3)ccc(Cl)c2F)ccc1[C@@H](CCOC(F)F)n1cc(-c2nncn2C(F)F)cn1` [Example P692], the IC50 rises from 29 nM to 334 nM (12-fold). The first is the more potent here.

First: O=C(O)C1CCCN(C(=O)C2CC2CC(c2ccc(-c3c(-n4cnnn4)ccc(Cl)c3F)c[n+]2[O-])n2cc(-c3ccccc3)cn2)C1 (stereo not shown) [Example P224]
Second: O=C(C1CC1CC(c1ccc(-c2c(-n3cnnn3)ccc(Cl)c2F)c[n+]1[O-])n1cc(-c2ccccc2)cn1)N1CCC(c2ccccc2)C1 (stereo not shown) [Example P196]
The IC50 of the first is 1.7-fold lower: 591 nM for the first, 995 nM for the second.

First: COc1ccc(CC(c2ccc(-c3cc(Cl)ccc3-n3cnnn3)c[n+]2[O-])n2cc(-c3ccc(C(=O)O)cc3)cn2)cc1 (stereo not shown) [Example P64]
Second: O=C(O)c1ccc(-c2cnn(C(c3ccc(-c4cc(Cl)ccc4-n4cnnn4)c[n+]3[O-])C(O)c3ccccc3)c2)cc1 (single isomer, unassigned) [Example P119]
The IC50 of the first is 29-fold lower: 5.3 nM for the first, 155 nM for the second.

Going from `COc1cc(C(CC2CC2)n2cc(-c3cnn(C)c(=O)c3)cn2)[n+]([O-])cc1-c1c(C#N)ccc(Cl)c1F` (single isomer, unassigned) [Example Q10] to `COc1cc(C(CC2CC2)n2cc(-c3c(F)nnn3C)cn2)[n+]([O-])cc1-c1cc(Cl)ccc1C#N` (single isomer, unassigned) [Example Q62], the IC50 falls from 375 nM to 80.9 nM (4.6-fold).

Going from `[O-][n+]1cc(-c2c(-n3cnnn3)ccc(Cl)c2F)ccc1C(Cc1ccn(C(F)F)n1)n1cc(-c2ccnc(C(F)(F)F)c2)cn1` (stereo not shown) [Example P703] to `COCc1ccn(CC(c2ccc(-c3c(-n4cnnn4)ccc(Cl)c3F)c[n+]2[O-])n2cc(-c3ccnc(C(F)(F)F)c3)cn2)n1` (single isomer, unassigned) [Example P441], the IC50 falls from 9.7 nM to 3.2 nM (3-fold). The second is the more potent here.

First: Cn1nncc1-c1cnn([C@H](Cc2ccn(C(F)F)n2)c2ccc(-c3c(-n4cc(C(F)(F)F)nn4)ccc(Cl)c3F)c[n+]2[O-])c1 [Example P792]
Second: [O-][n+]1cc(-c2c(-n3cc(Cl)nn3)ccc(Cl)c2F)ccc1[C@@H](Cn1cccn1)n1cc(-c2cnnn2C(F)F)cn1 [Example P685]
The IC50 of the first is 2-fold lower: 76.2 nM for the first, 151 nM for the second. The first is the more potent here.

First: CC(=O)Nc1cnc(C(F)(F)F)cc1-c1cnn(C(CC2CC2)c2ccc(-c3c(-n4cnnn4)ccc(Cl)c3F)c[n+]2[O-])c1 (single isomer, unassigned) [Example P842]
Second: Cc1nc(C(F)(F)F)sc1-c1cnn(C(CC2CC2)c2ccc(-c3c(-n4cnnn4)ccc(Cl)c3F)c[n+]2[O-])c1 (single isomer, unassigned) [Example P961]
The IC50 of the first is 4-fold higher: 346 nM for the first, 85.6 nM for the second. The second is the more potent here.

`CN(CC(c1ccc(-c2c(-n3cnnn3)ccc(Cl)c2F)c[n+]1[O-])n1cc(-c2ccnc(C(F)(F)F)c2)cn1)C(=O)CCC(=O)N1CCCCC1` (single isomer, unassigned) [Example P400] and `CN(C)C(=O)N(C)CC(c1ccc(-c2c(-n3cnnn3)ccc(Cl)c2F)c[n+]1[O-])n1cc(-c2ccnc(C(F)(F)F)c2)cn1` (stereo not shown) [Example P437] are within 1.5-fold of each other in IC50: 93.8 nM for the first, 113 nM for the second.

First: CC1CC1CC(c1ccc(-c2c(-n3cnnn3)ccc(Cl)c2F)c[n+]1[O-])n1cc(-c2ncnn2C(F)F)cn1 (stereo not shown) [Example P767]
Second: CC1CC1CC(c1ccc(-c2c(-n3cnnn3)ccc(Cl)c2F)c[n+]1[O-])n1cc(-c2ccc(C(=O)O)cc2)cn1 (stereo not shown) [Example P227]
The IC50 of the first is higher: over 100 nM for the first, 11.9 nM for the second.

First: NC(=O)C1CC1CC(c1ccc(-c2cc(Cl)ccc2-n2cnnn2)c[n+]1[O-])n1cc(-c2ccc(C(=O)O)cc2)cn1 (stereo not shown) [Example P113]
Second: O=C(O)c1ccc(-c2cnn(C(c3ccc(-c4cc(Cl)ccc4-n4cnnn4)c[n+]3[O-])C(O)c3ccccc3)c2)cc1 (single isomer, unassigned) [Example P118]
The IC50 of the first is 4.5-fold higher: 291 nM for the first, 64.9 nM for the second. The second is the more potent here.

Going from `[O-][n+]1cc(-c2c(-n3cnnn3)ccc(Cl)c2F)ccc1C(CC1CC1)n1cc(-c2cnnn2C2CC2)cn1` (stereo not shown) [Example P524] to `[O-][n+]1cc(-c2c(-n3cnnn3)ccc(Cl)c2F)ccc1C(CC1CC1)n1cc(-c2cnn(C(F)(F)F)c2)cn1` (stereo not shown) [Example P708], the IC50 rises from 428 nM to 658 nM (1.5-fold). The first is the more potent here.

First: CCC(c1ccc(-c2c(-n3cnnn3)ccc(Cl)c2F)c[n+]1[O-])n1cc(-c2cc[n+]([O-])cc2)cn1 (single isomer, unassigned) [Example P234]
Second: O=C(c1ccn(CC(c2ccc(-c3c(-n4cnnn4)ccc(Cl)c3F)c[n+]2[O-])n2cc(-c3cc[n+]([O-])cc3)cn2)n1)N1CCCCC1 (stereo not shown) [Example P447]
The IC50 of the first is 69-fold higher: 298 nM for the first, 4.3 nM for the second.

`O=C(O)c1cc(-c2cnn(C(CC3CC3)c3ccc(-c4c(C(F)F)ccc(Cl)c4F)c[n+]3[O-])c2)c[nH]1` (stereo not shown) [Example Q24] and `[O-][n+]1cc(-c2c(C(F)F)ccc(Cl)c2F)ccc1C(Cn1cc(F)cn1)n1cc(-c2ccnc(C(F)(F)F)c2)cn1` (single isomer, unassigned) [Example Q22] are within 1.5-fold of each other in IC50: 578 nM for the first, 806 nM for the second.

Compared with `CC(C)(C)c1cnn(CC(c2ccc(-c3c(-n4cc(C(F)(F)F)nn4)ccc(Cl)c3F)c[n+]2[O-])n2cc(-c3ccc(C(N)=O)c(F)c3)cn2)c1` (stereo not shown) [Example P951], `CCC(c1ccc(-c2c(-n3cc(C(F)(F)F)nn3)ccc(Cl)c2F)c[n+]1[O-])n1cc(-c2ccc(C(N)=O)c(F)c2)cn1` (single isomer, unassigned) [Example P883] is 3.1-fold lower in IC50: 316 nM for the first, 103 nM for the second.

Going from `COC(=O)Nc1ccc(-c2cnn(C(CC3CC3C(=O)N3CCCCC3)c3ccc(-c4c(-n5cnnn5)ccc(Cl)c4F)c[n+]3[O-])c2)cc1` (stereo not shown) [Example P231] to `COC(=O)Nc1ccc(-c2cnn(C(CCO)c3ccc(-c4c(-n5cnnn5)ccc(Cl)c4F)c[n+]3[O-])c2)cc1` (single isomer, unassigned) [Example P218], the IC50 falls from 366 nM to 87.2 nM (4.2-fold). The second is the more potent here.

First: Cn1ncc(-c2cnn(C(Cc3ccc(F)cc3)c3ccc(-c4c(-n5cnnn5)ccc(Cl)c4F)c[n+]3[O-])c2)cc1=O (stereo not shown) [Example P116]
Second: [O-][n+]1cc(-c2c(-n3cnnn3)ccc(Cl)c2F)ccc1C(Cc1ccc(F)cc1)n1cc(-c2c(Cl)nnn2C(F)F)cn1 (single isomer, unassigned) [Example P589]
The IC50 of the first is 20-fold lower: 26.2 nM for the first, 520 nM for the second.

First: [O-][n+]1cc(-c2c(-n3cnnn3)ccc(Cl)c2F)ccc1C(CCOC(F)F)n1cc(-c2ccncn2)cn1 (stereo not shown) [Example P367]
Second: Cc1nc(N)ccc1-c1cnn(C(CCOC(F)F)c2ccc(-c3c(-n4cnnn4)ccc(Cl)c3F)c[n+]2[O-])c1 (single isomer, unassigned) [Example P343]
The IC50 of the first is 17-fold lower: 43.9 nM for the first, 767 nM for the second. The first is the more potent here.

First: [O-][n+]1ccc(-c2cnn(C(Cn3cc(F)cn3)c3ccc(-c4c(-n5cnnn5)ccc(Cl)c4F)c[n+]3[O-])c2)cc1C(F)F (single isomer, unassigned) [Example P406]
Second: [O-][n+]1cc(-c2c(-n3cc(Cl)nn3)ccc(Cl)c2F)ccc1C(Cn1cc(F)cn1)n1cc(-c2ccnc(C(F)(F)F)c2)cn1 (stereo not shown) [Example P479]
The IC50 of the first is 6.7-fold lower: 27.6 nM for the first, 185 nM for the second.

Going from `[O-][n+]1cc(-c2cc(Cl)ccc2-n2cnnn2)ccc1C(Cc1ccc(Cl)cc1)n1cc(-c2ccnc(C(F)(F)F)c2)cn1` (stereo not shown) [Example P250] to `COC(=O)Nc1ccc(-c2cnn(C(Cc3ccc(Cl)cc3)c3ccc(-c4c(-n5cnnn5)ccc(Cl)c4F)c[n+]3[O-])c2)cc1` (single isomer, unassigned) [Example P159], the IC50 rises from 45.9 nM to 215 nM (4.7-fold). The first is the more potent here.

Going from `COCC[C@H](c1ccc(-c2c(-n3cnnn3)ccc(Cl)c2F)c[n+]1[O-])n1cc(-c2cc(C(F)(F)F)nn2C)cn1` [Example P619] to `COCCC(c1ccc(-c2c(-n3cc(Cl)nn3)ccc(Cl)c2F)c[n+]1[O-])n1cc(-c2c(Cl)nnn2C)cn1` (stereo not shown) [Example P639], the IC50 rises from 89.3 nM to 316 nM (3.5-fold). The first is the more potent here.

First: [O-][n+]1cc(-c2c(-n3cc(Cl)nn3)ccc(Cl)c2F)ccc1[C@@H](Cn1cc(F)cn1)n1cc(-c2c(F)cnn2C(F)F)cn1 [Example P631]
Second: [O-][n+]1cc(-c2c(-n3cnnn3)ccc(Cl)c2F)ccc1C(Cn1nccc1C(F)(F)F)n1cc(-c2ccnc(F)c2)cn1 (stereo not shown) [Example P346]
The IC50 of the first is 5.6-fold higher: 66.2 nM for the first, 11.8 nM for the second. The second is the more potent here.

Going from `COC(=O)Nc1ccc(-c2cnn(C(CC3CC(C)(C)C3)c3ccc(-c4c(-n5cnnn5)ccc(Cl)c4F)c[n+]3[O-])c2)cc1` (stereo not shown) [Example P126] to `COC(=O)Nc1ccc(-c2cnn(C(Cn3cccn3)c3ccc(-c4c(-n5cnnn5)ccc(Cl)c4F)c[n+]3[O-])c2)cc1` (single isomer, unassigned) [Example P273], the IC50 falls from 248 nM to 10.9 nM (23-fold).

Going from `CCC(c1cc(OC)c(-c2cc(Cl)ccc2-n2cc(C(F)(F)F)nn2)c[n+]1[O-])n1cc(-c2ncnn2C)cn1` (single isomer, unassigned) [Example P922] to `COC(=O)N1CCCC(c2cnn(C(CC3CC3)c3ccc(-c4c(-n5cnnn5)ccc(Cl)c4F)c[n+]3[O-])c2)C1` (stereo not shown) [Example P108], the IC50 rises from 54.9 nM to 649 nM (12-fold). The first is the more potent here.

`O=C(NC1CC1)c1ccc(-c2cnn(C(Cc3ccc(-c4ccccc4)cc3)c3ccc(-c4cc(Cl)ccc4-n4cnnn4)c[n+]3[O-])c2)cc1` (stereo not shown) [Example P87] gave an IC50 of 79.8 nM.

From patent US11814364B2, “Pyridine N-oxide derivatives useful as factor XIa inhibitors” (Janssen Pharmaceutica NV, priority 2021, dated 2023)
